Measurements published in the supplement of paper PMC10307832.

Key:
Assay in all cases: relative viability (nuclei count vs DMSO), 5 days (fraction); higher = more cells survive
[1] = compound: C1CSC2=C(C(=O)N1)SC3=C2C=C(C=C3)O [kb NB 142-70] + CS(=O)(=O)N1CCN(Cc2cc3nc(-c4cccc5[nH]ncc45)nc(N4CCOCC4)c3s2)CC1 [Pictilisib] (partner 1 µM)
Method in brief: (§1)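 For relative viability, nuclei counts in treated wells were divided by those in vehicle wells. Lung cancer cell lines had been pin-tool dosed in 1536-well plates the day after seeding and cultured for 5 days, then fixed and stained in one step (final 0.05% Triton X-100, 1% formaldehyde, 1 ug/ml Hoechst) and imaged at 4×. Doses were one drug alone or a fixed anchor-drug dose plus five library-drug doses (not always all listed) in √10 steps, and values are duplicate-plate medians.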

[2] = compound: C1CSC2=C(C(=O)N1)SC3=C2C=C(C=C3)O [kb NB 142-70] + COc1cccc2cc(-c3nc([C@H]4CC[C@H](C(=O)O)CC4)n4ncnc(N)c34)[nH]c12 [OSI-027] (partner 0.5 µM)
Method in brief: as §1

[3] = compound: C1CSC2=C(C(=O)N1)SC3=C2C=C(C=C3)O [kb NB 142-70] + C[C@]1(O)C[C@@H](c2nc(-c3ccc4ccc(-c5ccccc5)nc4c3)c3c(N)nccn32)C1 [Linsitinib] (partner 1 µM)
Method in brief: as §1

[4] = compound: NCC(=O)Nc1ccc(-n2nc(C(F)(F)F)cc2-c2ccc3c(ccc4ccccc43)c2)cc1 + CC1(C)CCC(c2ccc(Cl)cc2)=C(CN2CCN(c3ccc(C(=O)NS(=O)(=O)c4ccc(N[C@H](CCN5CCOCC5)CSc5ccccc5)c(S(=O)(=O)C(F)(F)F)c4)cc3)CC2)C1 [Navitoclax] (partner 0.5 µM)
Method in brief: as §1

[5] = compound: C1CSC2=C(C(=O)N1)SC3=C2C=C(C=C3)O [kb NB 142-70] + C[C@@H](Oc1cc(-c2cnn(C3CCNCC3)c2)cnc1N)c1c(Cl)ccc(F)c1Cl [Crizotinib] (partner 1 µM)
Method in brief: as §1

[6] = compound: C1CSC2=C(C(=O)N1)SC3=C2C=C(C=C3)O [kb NB 142-70] + Cc1cc(Nc2cc(N3CCN(C)CC3)nc(Sc3ccc(NC(=O)C4CC4)cc3)n2)n[nH]1 [Tozasertib] (partner 0.1 µM)
Method in brief: as §1

| Cell Line | relative viability ([1]; first compound 0.1 µM) | relative viability ([1]; first compound 1 µM) | relative viability ([1]; first compound 3.162 µM) | relative viability ([2]; first compound 0.1 µM) | relative viability ([2]; first compound 1 µM) | relative viability ([2]; first compound 3.162 µM) | relative viability ([3]; first compound 0.1 µM) | relative viability ([3]; first compound 1 µM) | relative viability ([3]; first compound 3.162 µM) | relative viability ([4]; first compound 0.02 µM) | relative viability ([4]; first compound 0.06325 µM) | relative viability ([4]; first compound 0.2 µM) | relative viability ([4]; first compound 0.6325 µM) | relative viability ([4]; first compound 2 µM) | relative viability ([5]; first compound 0.1 µM) | relative viability ([5]; first compound 1 µM) | relative viability ([5]; first compound 3.162 µM) | relative viability ([6]; first compound 0.1 µM) | relative viability ([6]; first compound 1 µM) | relative viability ([6]; first compound 3.162 µM) |
| --- | --- | --- | --- | --- | --- | --- | --- | --- | --- | --- | --- | --- | --- | --- | --- | --- | --- | --- | --- | --- |
| 201T | 0.683 | 0.649 | 0.698 | 0.723 | 0.714 | 0.653 | 1.04 | 1.05 | 1.02 | 1.26 | 1.18 | 1.24 | 1.25 | 1.22 | 0.989 | 1.07 | 1.03 | 0.875 | 0.974 | 1.03 |
| A549 | 0.474 | 0.498 | 0.114 | – | – | – | 0.551 | 0.524 | 0.499 | 1.24 | 1.19 | 1.24 | 1.17 | 0.7 | 0.762 | 0.861 | 0.213 | – | – | – |
| A-427 | 0.816 | 0.753 | 0.748 | 0.524 | 0.469 | 0.408 | 1.04 | 1.12 | 1.01 | 0.798 | 0.956 | 0.972 | 0.95 | 0.959 | 0.937 | 1.01 | 0.908 | 0.252 | 0.221 | 0.195 |
| ABC-1 | 0.757 | 0.879 | 0.381 | 0.481 | 0.506 | 0.346 | 0.976 | 0.984 | 0.683 | – | – | – | – | – | 1.02 | 1.31 | 0.497 | 0.178 | 0.165 | 0.169 |
| BEN | 0.561 | 0.527 | 0.405 | 0.306 | 0.301 | 0.202 | 0.793 | 0.893 | 0.724 | 0.0632 | 0.0631 | 0.0469 | 0.0862 | 0.0668 | 0.791 | 0.906 | 0.69 | 0.459 | 0.455 | 0.437 |
| CAL-12T | 0.563 | 0.451 | 0.344 | 0.857 | 0.719 | 0.444 | 0.859 | 0.869 | 1.03 | 1.17 | 1.19 | 1.37 | 1.2 | 1.34 | 0.605 | 0.802 | 0.611 | 0.36 | 0.395 | 0.267 |
| COR-L23 | 0.765 | 0.807 | 0.251 | 0.797 | 0.728 | 0.279 | 0.953 | 0.901 | 0.303 | 1.1 | 0.935 | 1.01 | 1.07 | 1 | 0.679 | 0.818 | 0.278 | 0.237 | 0.157 | 0.134 |
| COR-L 105 | 0.376 | 0.392 | 0.37 | 0.821 | 0.734 | 0.674 | 1.17 | 1 | 0.94 | 0.817 | 0.947 | 0.649 | 0.841 | 0.703 | 0.564 | 0.816 | 0.925 | 0.319 | 0.287 | 0.255 |
| Calu-6 | 0.873 | 0.805 | 0.457 | – | – | – | 0.93 | 0.889 | 0.683 | 0.885 | 0.812 | 1.09 | 0.844 | 0.878 | 0.748 | 0.839 | 0.384 | – | – | – |
| ChaGo-K-1 | 0.894 | 0.807 | 0.523 | 0.631 | 0.543 | 0.488 | – | – | – | 0.931 | 1.06 | 0.636 | 0.939 | 1.19 | 1.1 | 1.16 | 1.13 | 0.244 | 0.246 | 0.219 |
| EBC-1 | 0.369 | 0.398 | 0.265 | – | – | – | 0.897 | 0.952 | 0.817 | 0.451 | 0.427 | 0.554 | 0.456 | 0.435 | 0.196 | 0.209 | 0.155 | – | – | – |
| EKVX | 0.413 | 0.465 | 0.438 | 0.707 | 0.675 | 0.788 | 0.969 | 1.01 | 1.04 | 0.902 | 0.969 | 1.07 | 0.971 | 1.03 | 0.884 | 1.04 | 1.19 | 0.353 | 0.382 | 0.466 |
| EMC-BAC-2 | 0.581 | 0.562 | 0.431 | 0.361 | 0.422 | 0.338 | 0.805 | 0.798 | 0.747 | 1.14 | 1.19 | 1.26 | 1.17 | 1.13 | 0.782 | 0.893 | 0.625 | 0.303 | 0.302 | 0.261 |
| EPLC-272H | 0.349 | 0.325 | 0.237 | 0.278 | 0.243 | 0.187 | 1.07 | 1.05 | 0.599 | 1.25 | 1.07 | 1.15 | 1 | 1.09 | 0.851 | 1.03 | 0.428 | 0.353 | 0.217 | 0.143 |
| H3255 | 0.469 | 0.45 | 0.437 | 0.606 | 0.603 | 0.554 | 0.824 | 0.984 | 0.905 | 0.481 | 0.578 | 0.594 | 0.482 | 0.457 | 0.97 | 0.776 | 0.958 | 0.534 | 0.785 | 0.746 |
| HARA | 0.476 | 0.372 | 0.381 | 0.57 | 0.479 | 0.234 | 1.05 | 0.975 | 0.631 | 1.24 | 1.14 | 1.15 | 1.16 | 1.15 | 0.922 | 0.817 | 0.922 | 0.0886 | 0.112 | 0.0824 |
